Data taken from patent publication US20150307938A1, “METHOD TO IDENTIFY A NOVEL CLASS OF IMMUNOLOGIC ADJUVANTS” (Lancell, L.L.C., priority 2011, published 2015).

Test system: PR8
Design: species or system mice
Conditions: mouse, in vivo

SMILES: CCCCOC(=O)c1ccccc1C(=O)OCCCC [DBP, dibutylphthalate]
- survival of a lethal dose of virus: mice survived a lethal dose of virus
